Here are results for four compounds from ChEMBL document CHEMBL1147541, “Synthesis of fluorinated cyclopentenyladenine as potent inhibitor of S-adenosylhomocysteine hydrolase” (Bioorg Med Chem Lett, 2004).

Sequence of Adenosylhomocysteinase (P23526 whole entry): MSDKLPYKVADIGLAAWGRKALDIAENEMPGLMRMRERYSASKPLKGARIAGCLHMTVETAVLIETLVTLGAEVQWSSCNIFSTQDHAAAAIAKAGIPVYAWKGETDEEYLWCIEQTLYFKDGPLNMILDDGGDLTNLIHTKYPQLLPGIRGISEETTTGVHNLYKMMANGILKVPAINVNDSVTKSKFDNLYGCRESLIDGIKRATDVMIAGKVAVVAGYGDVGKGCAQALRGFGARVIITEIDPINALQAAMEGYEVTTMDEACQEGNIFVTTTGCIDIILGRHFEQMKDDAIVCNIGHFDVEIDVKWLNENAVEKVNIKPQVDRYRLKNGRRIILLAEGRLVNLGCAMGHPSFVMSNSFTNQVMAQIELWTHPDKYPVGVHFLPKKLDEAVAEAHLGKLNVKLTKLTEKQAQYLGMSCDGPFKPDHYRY

The assay addresses Adenosylhomocysteinase (Homo sapiens, UniProt P23526). Put plainly: In vitro inhibitory activity against recombinant S-adenosyl-L-homocysteine hydrolase obtained from human placenta.
As usually defined, the IC50 is the concentration needed to halve the response being measured. As to `Nc1ncnc2c1ncn2[C@@H]1C(F)=C(CO)[C@@H](O)[C@H]1O` [FLUORO-NEPLANOCIN A], the IC50 worked out at 0.47 µM.

For `Nc1ncnc2c1ncn2[C@@H]1C(F)=C[C@@H](O)[C@H]1O`, the IC50 came out at 8.9 µM.

In the case of `Nc1ncnc2c1ncn2[C@@H]1C=C(CO)[C@@H](O)[C@H]1O` [NEOPLANOCIN A], the IC50 worked out at 0.89 µM.

As to `Nc1ncnc2c1ncn2[C@@H]1C=C[C@@H](O)[C@H]1O`, the IC50 worked out at 8.7 µM.
